According to patent US4372890A, “Platinum compound” (Kureha Kagaku Kogyo Kabushiki Kaisha, priority 1980, dated 1983):

Columns and labels:
[1] = Solubility of the products of the Examples in water and organic solvents; assay type: physicochemical
[2] = Weight decrease and kidney cell damage in the mice of the P-388 test; assay type: in vivo, CDF1 mice; conditions: 5 mg/kg intraperitoneal for 5 days
Description: (§1) P-388 ascites cells obtained by a successive cultivation in DBA/2 mice were transplanted by the route of intraperitoneal injection into CDF1 mice (10 mice in one group) at a rate of 1×10^6 /mouse. From 24 hours after the transplantation, a solution of each compound in physiological saline solution was injected once a day for 5 days as 5 times by the route of intraperitoneal injection. Each average survival days (T) of the administered group and each average survival days (C) of control group were measured to calculate each percentage increase in life span (ILS(%))

[3] = test system: mouse P-388 leukemia; assay: Antitumor effect to mouse P-388 leukemia (ILS); assay type: in vivo; conditions: 5 mg/kg, intraperitoneal, once a day for 5 days, P-388 in CDF1 mice
Description: Antitumor effects of the products to mouse P-388 leukemia were tested.
as §1

Row | Structure (SMILES) | solubility in benzene and chloroform ([1]; benzene and chloroform) | solubility in ethanol ([1]; ethanol) | solubility in methanol ([1]; methanol) | solubility in water ([1]; water) | kidney cell damage [2] | weight decrease [2] | ILS (percentage increase in life span, T/C×100) [3]
1 | COC(=O)C(N)C(N)C(=O)OC (stereo not shown) [Example 1] | insoluble | soluble | soluble | soluble |  |  | 
2 | N.N.[Cl][Pt][Cl] [Compound No. 5, cis-[diaminedichloroplatinum (II)]] |  |  |  |  | kidney cell damage were observed for all of 10 mice | remarkable weight decrease | 180%
